The results in this text go back to the Kinase Knowledgebase extract (Sharma et al. 2016).

For one experiment, the system named is MAPK14 (BALB/cJ mice). Put plainly: In vivo Inhibition of LPS-induced TNF-alpha Production. The conditions noted are these: dose or concentration not given here.
The next experiment deals with MAPK14 (human) (UniProt Q16539). As to the kind of experiment: In vitro Inhibition of TNF-alpha Production in PBMC Cells.

Structures are written as SMILES.

Sequence of MAPK14 (human) (Q16539 whole entry, looked up): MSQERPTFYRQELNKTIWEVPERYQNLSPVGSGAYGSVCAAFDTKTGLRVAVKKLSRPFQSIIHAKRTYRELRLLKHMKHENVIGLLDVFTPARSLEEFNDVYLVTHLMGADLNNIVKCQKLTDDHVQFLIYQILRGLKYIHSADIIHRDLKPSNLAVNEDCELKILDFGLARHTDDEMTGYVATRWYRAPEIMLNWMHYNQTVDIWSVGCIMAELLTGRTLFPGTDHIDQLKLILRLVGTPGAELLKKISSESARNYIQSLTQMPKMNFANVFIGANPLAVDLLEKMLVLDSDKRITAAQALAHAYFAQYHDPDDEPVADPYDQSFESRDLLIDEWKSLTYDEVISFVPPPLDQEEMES

For orientation: inhibition means the change of the read-out against control, counted positive when it falls. Broadly, the IC50 is the midpoint of a concentration-inhibition curve. `COC(=O)c1c(-c2ccc(F)cc2)c(-c2ccncc2)c(N2CCN(c3cccc(C(C)=O)c3)CC2)n1C`: the inhibition in the experiment with MAPK14 (BALB/cJ mice) is -21%. For the same compound, the 50% inhibitory concentration (IC50) on MAPK14 (human) worked out at 0.008 µM.

In the case of `Fc1ccc(-c2cn3c(c2-c2ccncc2)CNCC3)cc1`, the inhibition in the experiment with MAPK14 (BALB/cJ mice) is 71%. This compound also registered an IC50 on MAPK14 (human) of 0.208 µM.

Consider `COC(=O)c1c(-c2ccc(F)cc2)c(-c2ccncc2)c(N2CCc3ccccc3C2)n1C`, for which the inhibition with MAPK14 (BALB/cJ mice) was found to be 32%. Moreover, the concentration for half-maximal inhibition (IC50) on MAPK14 (human) came to 0.166 µM.

As to `CCCc1c(-c2ccnc(N[C@@H](C)COC)n2)c(-c2ccc(F)cc2)cn1CCN1CCOCC1`, the inhibition in the experiment with MAPK14 (BALB/cJ mice) is -1%. This compound yielded a 50% inhibitory concentration (IC50) against MAPK14 (human) of 0.001 µM.

With `COC(=O)c1c(-c2ccc(F)cc2)c(-c2ccncc2)c(NC2CCNCC2)n1C`, the inhibition in the experiment on MAPK14 (BALB/cJ mice) is 7%. The compound also came in with a 50% inhibitory concentration (IC50) against MAPK14 (human) of 0.315 µM.

Turning to `OCc1[nH]cc(-c2ccc(F)cc2)c1-c1ccncc1`, the inhibition with MAPK14 (BALB/cJ mice) was -72%. This compound also returned a concentration for half-maximal inhibition (IC50) against MAPK14 (human) of 0.101 µM.

In the case of `CCOC(=O)c1c(-c2ccc(F)cc2)c(-c2ccncc2)c(CCCOCc2ccccc2)n1C`, the inhibition in the experiment on MAPK14 (BALB/cJ mice) is 51%. Further, the IC50 on MAPK14 (human) was found to be 0.248 µM.

For `COC(=O)c1c(-c2ccc(F)cc2)c(-c2ccncc2)cn1C(C)=O`, in the experiment with MAPK14 (BALB/cJ mice), the inhibition was -32.1%. Moreover, the IC50 at MAPK14 (human) is 0.194 µM.

For the compound `CCNC(=O)c1[nH]cc(-c2ccc(F)cc2)c1-c1ccncc1`, the inhibition in the experiment with MAPK14 (BALB/cJ mice) is -24%. The same compound had a concentration for half-maximal inhibition (IC50) at MAPK14 (human) of 0.209 µM.

Take `CCCc1[nH]cc(-c2ccc(F)cc2)c1-c1ccnc(N[C@@H](C)c2ccccc2)n1`: in the experiment on MAPK14 (BALB/cJ mice), the inhibition is -19%. The same compound gave an IC50 against MAPK14 (human) of 0.01 µM.

With `Fc1ccc(-c2cn3c(c2-c2ccncc2)CN(Cc2ccccc2)CC3)cc1`, the inhibition in the experiment on MAPK14 (BALB/cJ mice) is -6%. The compound further had a half-maximal inhibitory concentration (IC50) at MAPK14 (human) of 0.011 µM.

For the compound `COC(=O)c1c(-c2ccncc2)c(-c2ccc(F)cc2)c(Br)n1C`, in the experiment on MAPK14 (BALB/cJ mice), the inhibition was -6%. The same compound had an IC50 at MAPK14 (human) of 0.18 µM.

Take `CN(Cc1ccccc1)Cc1[nH]cc(-c2ccc(F)cc2)c1-c1ccncc1`: in the experiment with MAPK14 (BALB/cJ mice), the inhibition amounted to 37%. The 50% inhibitory concentration (IC50) against MAPK14 (human) came to 0.091 µM.

Turning to `Cn1cc(-c2ccc(F)cc2)c(-c2ccncc2)c1N1CCNCC1`, the inhibition in the experiment on MAPK14 (BALB/cJ mice) was 75%. Besides, the concentration for half-maximal inhibition (IC50) against MAPK14 (human) turned out to be 0.015 µM.

In the case of `CCOC(=O)c1c(-c2ccc(C)cc2)c(-c2ccncc2)c(Br)n1C`, the inhibition in the experiment on MAPK14 (BALB/cJ mice) is -76%. Further, the concentration for half-maximal inhibition (IC50) against MAPK14 (human) was 0.736 µM.

`COc1ccc(CNCc2[nH]cc(-c3ccncc3)c2-c2ccc(F)cc2)cc1`: the inhibition with MAPK14 (BALB/cJ mice) is -30%. Also, at MAPK14 (human), the half-inhibitory concentration (IC50) is 0.19 µM.

Consider `CN(C)C(=O)c1c(-c2ccc(F)cc2)c(-c2ccncc2)c(Br)n1C`, for which the inhibition in the experiment on MAPK14 (BALB/cJ mice) is -41%. Further, on MAPK14 (human), the IC50 was 0.301 µM.

On to `O=C1c2c(-c3ccncc3)c(-c3ccc(F)cc3)cn2C(=O)N1Cc1ccccc1`, for which the inhibition in the experiment on MAPK14 (BALB/cJ mice) came to 51%. At MAPK14 (human), this compound displayed an IC50 of 0.026 µM.

For the compound `Cn1cc(-c2ccc(F)cc2)c(-c2ccncc2)c1CO`, the inhibition in the experiment on MAPK14 (BALB/cJ mice) stood at 65%. In addition, the IC50 against MAPK14 (human) came out at 0.169 µM.

Consider `COC(=O)c1c(-c2ccncc2)c(-c2ccc(F)cc2)c(C#CCCN2CCOCC2)n1C`, for which the inhibition with MAPK14 (BALB/cJ mice) was -4%. In addition, the IC50 on MAPK14 (human) came to 0.032 µM.

For `COC(=O)c1c(-c2ccncc2)c(-c2ccc(F)cc2)c(C#CCN2CCOCC2)n1C`, the inhibition in the experiment with MAPK14 (BALB/cJ mice) turned out to be 47%. Further, the concentration for half-maximal inhibition (IC50) at MAPK14 (human) turned out to be 0.788 µM.

For the compound `CCOC(=O)c1c(-c2cccc(C(F)(F)F)c2)c(-c2ccncc2)c(N2CCNCC2)n1C`, the inhibition in the experiment on MAPK14 (BALB/cJ mice) amounted to 83%. The IC50 on MAPK14 (human) is 0.021 µM.

With `Cn1c(C(=O)OC(C)(C)C)c(-c2ccc(F)cc2)c(-c2ccncc2)c1N1CCNCC1`, the inhibition in the experiment on MAPK14 (BALB/cJ mice) is 25%. The half-maximal inhibitory concentration (IC50) at MAPK14 (human) amounted to 0.42 µM.

As to `COC(=O)C1Cn2cc(-c3ccncc3)c(-c3ccc(F)cc3)c2C1=O` (stereo unspecified), the inhibition in the experiment with MAPK14 (BALB/cJ mice) came to 44.7%. Moreover, the concentration for half-maximal inhibition (IC50) at MAPK14 (human) was 0.029 µM.

For the compound `CN(C)CCn1cc(-c2ccncc2)c(-c2ccc(F)cc2)c1CO`, the inhibition in the experiment with MAPK14 (BALB/cJ mice) was found to be 20%. At MAPK14 (human), this compound yielded a half-inhibitory concentration (IC50) of 0.852 µM.

For the compound `COC(=O)c1c(-c2ccc(F)cc2)c(-c2ccncc2)c(NCCN2CCCC2)n1CCN1CCOCC1`, the inhibition in the experiment on MAPK14 (BALB/cJ mice) was found to be 23%. At MAPK14 (human), this compound came in with an IC50 of 0.969 µM.

Turning to `COC(=O)C1CCn2cc(-c3ccncc3)c(-c3ccc(F)cc3)c2C1=O` (stereo unspecified), the inhibition in the experiment on MAPK14 (BALB/cJ mice) is -9%. The compound also gave a concentration for half-maximal inhibition (IC50) against MAPK14 (human) of 0.326 µM.

Turning to `COC(=O)c1c(-c2ccc(F)cc2)c(-c2ccncc2)c(C2=CCNCC2)n1C`, the inhibition in the experiment on MAPK14 (BALB/cJ mice) is 96%. Besides, the concentration for half-maximal inhibition (IC50) at MAPK14 (human) turned out to be 0.072 µM.

`COC(=O)c1c(-c2ccc(F)cc2)c(-c2ccncc2)c(-c2ccc(N(C)C)cc2)n1C`: the inhibition with MAPK14 (BALB/cJ mice) is -22%. Besides, the IC50 against MAPK14 (human) amounted to 0.12 µM.

As to `CNC(=O)c1c(-c2ccc(F)cc2)c(-c2ccncc2)c(N2CCNCC2)n1C`, the inhibition in the experiment with MAPK14 (BALB/cJ mice) is -7%. The same compound came in with an IC50 at MAPK14 (human) of 0.106 µM.

On to `O=C1CCCn2c(NCCN3CCOCC3)c(-c3ccncc3)c(-c3ccc(F)cc3)c21`, for which the inhibition in the experiment on MAPK14 (BALB/cJ mice) is 51%. The compound also displayed an IC50 on MAPK14 (human) of 2.56 µM.

As for `COCC#Cc1c(-c2ccc(F)cc2)c(-c2ccncc2)c(C(=O)OC)n1C`, the inhibition in the experiment with MAPK14 (BALB/cJ mice) was -5%. The same compound came in with an IC50 on MAPK14 (human) of 0.443 µM.

With `CNC(=O)c1c(-c2ccc(F)cc2)c(-c2ccncc2)c(Br)n1C`, in the experiment with MAPK14 (BALB/cJ mice), the inhibition came to 53%. The same compound yielded an IC50 against MAPK14 (human) of 0.543 µM.
